From patent US6541463B1, “Inhibitors of type 5 and type 3 17β-hydroxysteroid dehydrogenase and methods for their use” (Endorecherche, Inc., priority 1998, dated 2003)

What was measured:
[1] = test system: Shionogi mouse mammary carcinoma cells; assay: Antiandrogenic activity: inhibition of DHT-induced proliferation of Shionogi cells; type: cell-based
Experimental: The manner in which the inhibition is determined is described in “Other Tests; B-Androgenic/Antiandrogenic Activity”. Lower numbers are desirable. ND means that a determination was not done.
Androgenic/antiandrogenic activity of some preferred compounds has been measured using the Shionogi mouse mammary carcinoma cells.
Minimal essential culture medium (MEM), non-essential amino acids, and fetal calf serum were purchased from Flow Laboratories. In order to remove endogenous steroids, serum was incubated overnight at 4° C. with 1% activated charcoal (Norit A, Fisher) and 0.1% Dextran T-70 (Pharmacia). A 2-h supplementary adsorption was performed at 25° C. in order to further remove protein-bound steroids. Serum was also inactivated by a 20-min incubation at 56° C.
5α-dihydrotestosterone (DHT) was obtained from Steraloids. The antiandrogen hydroxyflutamide (OH-FLU) was kindly supplied by Drs. T. L. Nagabuschan and R. Neri (Schering Corporation, Kenilworth, U.S.A.).
Shionogi male mice bearing androgen-sensitive mammary tumors were obtained from Drs. Keishi Matsumoto, Osaka, Japan, and Yvonne Lefebvre, Ottawa, Canada. For primary culture, tumors were excised and washed in ice-cold sterile 25 mM Hepes buffer (137 mM NaCl; 5 mM KCl; 0.7 mM Na2HPO4; 10 mM glucose, pH 7.2). After mincing with scissors, the tumor minces were digested for 2 h at 37° C. in Hepes buffer containing 3.8 mg/ml collagenase (Clostridium, Boehringer), 1.5 mg/ml hyaluronidase II (Sigma), and 3% bovine serum albumin fraction V (Schwartz-Mann). Dispersed cells were collected by centrifugation (500×g for 10 min), washed twice by suspension in minimal essential medium (MEM) containing 5% dextran-coated charcoal-treated fetal calf serum (DCC-FCS), 1% non-essential amino acids, 10 IU/ml penicillin, 50 μg/ml streptomycin, and 100 nM dihydrotestosterone (DHT) (Steraloids).
Cells were plated in the same medium at a density of 75 000 cells/ml in 75 cm^2 flasks under an atmosphere of 5% carbon dioxide in air at 37° C. The medium was changed weekly. The steroids and antisteroids were dissolved in ethanol and kept in stock solutions chosen to yield final ethanol concentrations less than 0.01% in the culture medium.
Cells were subcultured at near-confidence by gentle digestion in a solution of 0.1% pancreatin (Flow Laboratories) in Hepes buffer containing 3 mM ethylenediaminetetraacetic acid (EDTA) (pH 7.2). Cells were pelleted by centrifugation, resuspended in culture medium, counted in a Coulter counter, and replated as described above. Soft agar cloning was performed as described (Stanley et al., Cell 10: 35-44, 1977) in the presence of 100 nM DHT.
Cells were plated in 24-well plates at a density of 20 000 cells/well. The indicated increasing concentrations of agents were added to triplicate dishes, and cells were grown for 10-12 days with changes of medium every 3-4 days. Cell number was measured by direct counting in a Coulter counter.
ED50 values of action of DHT and glucocorticoids were calculated according to a least-square regression as described (Rodbard, Endocrinology 94: 1427-1431, 1974). Statistical significance was calculated according to a multiple-range test (Kramer, Biometrics 12: 307-310,1956).

progesterone receptor = assay: Progesterone receptor assay: inhibition of [3H]R5020 binding, uterine cytosol; parameters: species or system rat; conditions: for % Inhibition Progesterone Receptor E^−6 / % Inhibition Progesterone Receptor E^−8: Table 4′
Experimental: The manner in which the percentage of inhibition is determined is described in “Other Tests; E-Progesterone Receptor Assay”. Lower numbers are desirable.
[17α-methyl-^3H]-promegestone (R5020) (84 Ci/mmol) and the corresponding unlabeled compound were purchased from New England Nuclear (Lachine, Québec, Canada). All other chemicals were of analytical grade.
Stock solutions of the unlabeled steroids were kept at 4° C. in ethanol. The desired steroid solutions were then prepared by appropriate dilution in buffer B (10 mM Tris-HCl, 1.5 mM EDTA, 10 mM α-monothioglycerol, pH 7.4) containing 30% ethanol.
Female Sprague-Dawley rats weighing 200-300 g were obtained from Charles-River Inc. (St-Constant, Québec, Canada). The rats were gonadectomized under general anesthesia (Isoflurane) and killed by cervical dislocation 24 hours later. The uteri are rapidly removed, dissected free from adhering tissue and frozen on dry-ice. Tissues were kept at −80° C. until use.
All procedures were performed at 4° C. Tissues were pulverized frozen in dry ice with a Thermovac pulverizer. The samples were then homogenized in 10 vol (w/v) of buffer A (25 mM Tris-HCl, 1.5 mM EDTA, 10 mM α-monothioglycerol, 10% glycerol, 10 mM sodium molybdate, pH 7.4) using a Polytron PT-10 homogenizer (Brinkmann Instruments, Canada) at a setting of 5 for two periods of 10 sec, with intervals of 10 sec for cooling. The homogenate was then centrifuged at 105,000×g for 90 min. The supernatant was used immediately for assay.
Progesterone binding was measured using the dextran-coated charcoal adsorption technique. […] Each concentration was done in triplicate. Assay was ended with 300 μl of DCC (1% Norit A and 0.1% Dextran T-70 in Buffer B). After 10 min of incubation, tubes were centrifuged at 2,000×g for 10 min. and decanted in vials with 6 ml of BCS liquid scintillation (New England Nuclear, Dupont). The radioactivity was measured in a Beckman counter at a counting efficiency of 35%.

[2] = Table 4′, DHT-induced proliferation, E^−6 (10^−6 M)
[3] = Table 4′, DHT-induced proliferation, E^−7

Row | SMILES | Antiandrogenic Activity Shionogi, DHT E^−6 [1, 2] [%] | Antiandrogenic Activity Shionogi, DHT E^−7 [1, 3] [%] | % Inhibition Progesterone Receptor E^−6 (progesterone receptor; E^−6) [%] | % Inhibition Progesterone Receptor E^−8 (progesterone receptor; E^−8) [%] | other results
1 | COCCOc1ccc2c(c1)C(=O)CC1C2CCC2(C)C1CCC21CCC(C)(C)C(=O)O1 (stereo not drawn) [EM-1408-CS] | −94 | −19 | 0 | 0 | 
2 | CC1(C)CCC2(CCC3C4CCc5cc(O)c(C#N)cc5C4CCC32C)OC1=O (stereo not drawn) [EM-01645] | −10 | −6 |  |  | 
3 | CC1(C)CCC2(CCC3C4CCc5cc(O)c([N+](=O)[O-])cc5C4CCC32C)OC1=O (stereo not drawn) [EM-1125-CS] | −43 | −30 | 7 | 5 | 
4 | CCOc1ccc2c(c1)CCC1C2CC[C@@]2(C)C1CC[C@@]21CCC(C)(C)C(=O)O1 (stereo partly drawn) [EM-1369, 3-Ethoxy-1,3,5(10)-estratrien-17(R)-spiro-2′-(5′,5′-dimethyl-6′-oxo)-tetrahydropyran] | −24 | 0 | 3 | 1 | 
5 | CC1CC(=O)OC2(CCC3C4CCc5cc(O)ccc5C4CCC32C)C1 [PB-132-142, 3-Hydroxy-1,3,5(10)-estratrien-17(R)-spiro-2′-(4′-methyl-6′-oxo)tetrahydropyran] | −13 | 0 |  |  | 
6 | COCCOc1ccc2c(c1)CCC1C2CCC2(C)C1CCC21CCC(C)(C)C(=O)O1 [EM-1368-CS, 3-Methoxyethoxy-1,3,5(10)-estratrien-17(R)-spiro-2′-(5′,5′-dimethyl-6′-oxo)-tetrahydropyran] | −44 | 0 | 3 | 0 | 
7 | COc1ccc(CC(=O)O[C@]2(C(C)=O)CCC3C4C=C(C)C5=CC(=O)C=C[C@]5(C)C4CC[C@@]32C)cc1 (stereo partly drawn) [EM-1291] |  |  |  |  | Antiandrogenic Activity Shionogi, DHT ([1]; E^−6): −48; Antiandrogenic Activity Shionogi, DHT ([1]; E^−7): −13; % Inhibition Progesterone Receptor (progesterone receptor; E^−6): 33%; % Inhibition Progesterone Receptor (progesterone receptor; E^−8): 0%
8 | COCCOc1cc2c(cc1Cl)C1CCC3(C)C(CCC34CCC(C)(C)C(=O)O4)C1CC2 (stereo not drawn) [EM-1371-CS] | −76 | 0 | 3 | 0 | 
9 | CC1CCC2(CCC3C4CCc5ccccc5C4CCC32C)OC1=O (stereo not drawn) [EM-1025] | −25 | −14 | 4 | 0 | 
10 | COc1cc2c(cc1C)C1CCC3(C)C(CCC34CCC(C)(C)C(=O)O4)C1CC2 (stereo not drawn) [EM-1412-CS] | −60 | 0 | 0 | 0 | 
11 | CC(=O)[C@@]1(OC(=O)CCCCF)CCC2C3C=C(C)C4=CC(=O)CC[C@]4(C)C3CC[C@@]21C (stereo partly drawn) [EM-1195-CS] |  |  |  |  | Antiandrogenic Activity Shionogi, DHT ([1]; E^−6): −110; Antiandrogenic Activity Shionogi, DHT ([1]; E^−7): −105; % Inhibition Progesterone Receptor (progesterone receptor; E^−6): 70%; % Inhibition Progesterone Receptor (progesterone receptor; E^−8): 0%
12 | COCCOc1cc2c(cc1C(F)(F)F)[C@H]1CC[C@@]3(C)[C@@H](CC[C@@]34CCC(C)(C)C(=O)O4)[C@@H]1CC2 [EM-1438, 3-(2′-Methoxyethoxy)-2-trifluoromethyl-1,3,5(10)-estratrien-17(R)-spiro-2′-(5′,5′-dimethyl-6′-oxo)tetrahydropyran] | −53 | 0 | 0 | 0 | 
13 | CC1(C)CC[C@@]2(CC[C@H]3[C@@H]4CCc5c(cc(Br)c(O)c5Br)[C@H]4CC[C@@]32C)OC1=O [EM-1382-CS] | 0 | 0 | 0 | 2 | 
14 | COc1cc2c(cc1C(F)(F)F)C1CCC3(C)C(CCC34CCC(C)(C)C(=O)O4)C1CC2 [EM-1409, 3-Methoxy-2-trifluoromethyl-1,3,5(10)-estratrien-17(R)-spiro-2′-(5′,5′-dimethyl-6′-oxo)tetrahydropyran] | −105 | −5 |  |  | 
15 | COC(=O)c1cc2c(cc1O)CCC1C2CCC2(C)C1CCC21CCC(C)(C)C(=O)O1 (stereo not drawn) [EM-01662] | −51 | −11 |  |  | 
16 | CC12CCC3c4ccc(O)cc4CCC3C1CCC21CC=CC(=O)O1 [PB-132-140, 3-hydroxy-1,3,5(10)-estratrien-17(R)-spiro-2′-(4′,5′-dihydro-6′-oxo)pyran] | 0 | 16 |  |  | 
17 | C=CCC1CCC2(CCC3C4CCc5cc(O)ccc5C4CCC32C)OC1=O [PB-132-152, 3-Hydroxy-1,3,5(10)-estratrien-17(R)-2′-(5′-allyl-6′-oxo)tetrahydropyran] | −19 | 14 |  |  | 
18 | COCCOc1cc2c(cc1C(=O)N(C)C)C1CCC3(C)C(CCC34CCC(C)(C)C(=O)O4)C1CC2 (stereo not drawn) [EM-1413-CS] | −44 |  |  |  | 
19 | COC(=O)C1CCC2(CCC3C4CCc5cc(O)ccc5C4CCC32C)OC1=O [PB-132-146, 3-Hydroxy-1,3,5(10)-estratrien-17(R)-2′-(5′-methoxycarbonyl-6′-oxo)tetrahydropyran] | −40 | 14 |  |  | 
20 | CN(C)C(=O)c1cc2c(cc1O)CCC1C2CCC2(C)C1CCC21CCC(C)(C)C(=O)O1 (stereo not drawn) [EM-01661-B] | −15 | 3 |  |  | 
21 | CC1(C)CCC2(CCC3C4CCc5cc(O)c(C(N)=O)cc5C4CCC32C)OC1=O (stereo not drawn) [EM-01660] | −51 | −20 |  |  | 
22 | CC1(C)CCC2(CCC3C4CCc5cc(C(=O)OCc6ccccc6)ccc5C4CCC32C)OC1=O (stereo not drawn) [EM-1398] | −37 | 0 |  |  | 
23 | COCCOc1cc2c(cc1F)C1CCC3(C)C(CCC34CCC(C)(C)C(=O)O4)C1CC2 (stereo not drawn) [EM-1393-CS] | −104 | 27 |  |  | 
24 | CC1=C[C@@H]2[C@H](CC[C@]3(C)C(=O)C4(CCCCC4)C[C@@H]23)[C@@]2(C)CCC(=O)C=C12 [EM-925] |  |  |  |  | Antiandrogenic Activity Shionogi, DHT E^−6 ([1]; with DHT, E^−6): −7; Antiandrogenic Activity Shionogi, DHT E^−7 ([1]; with DHT, E^−7): 15
